Laboratory results as given in patent US5096886A, “Antibacterial polypeptides” (Kabigen AB, priority 1989, dated 1992).
No end group written: not given here.

Tests used:
Type in all cases: cell-based
[1] = system: Acinetobacter calcoaceticus, Ac11; assay: Antibacterial lethal concentration, thin agarose plates
Procedure: (§1) The polypetide obtained in Example 2 was tested for antibacterial activity against different bacteria, the activity being given as lethal concentrations in micro-moles per liter (μM).
(§2) The four last strains of E. coli were obtained from Olof Soderlind, SVA, Uppsala and they are clinical isolates that are pathogenic to piglets. Typing of O and K antigens are indicated after the strain number. Lethal concentration is the lowest concentration of cecropin that inhibits growth of the respective bacteria in thin agarose plates (see Hultmark, D. et al. EMCO J. 2, 571-576 (1983).

[2] = system: Bacillus megaterium, Bm11; assay: as above
Procedure: as §1, §2

[3] = system: Escherichia coli 853/67, 0149, K88; assay: as above; details: clinical isolate pathogenic to piglets
Procedure: as §1, §2

[4] = system: Escherichia coli Bd2221/75, O8, K88; assay: as above; details: clinical isolate pathogenic to piglets
Procedure: as §1, §2

[5] = system: Escherichia coli Bd4462/84, O101, K99; assay: as above; details: clinical isolate pathogenic to piglets
Procedure: as §1, §2

[6] = system: Escherichia coli Bd4468/84, O64, K99; assay: as above; details: clinical isolate pathogenic to piglets
Procedure: as §1, §2

[7] = system: Escherichia coli K12, D21; assay: as above; details: lowest concentration that inhibits growth in thin agarose plates
Procedure: as §1, §2

[8] = system: Proteus vulgaris, Pv11; assay: as above
Procedure: as §1, §2

[9] = system: Pseudomonas aeruginosa, OT97; assay: as above
Procedure: as §1, §2

[10] = system: Salmonella typhimurium, LT2; assay: as above
Procedure: as §1, §2

[11] = system: Staphylococcus aureus, Cowan 1; assay: as above
Procedure: as §1, §2

[12] = system: Streptococcus pyogenes; assay: as above
Procedure: as §1, §2

[13] = system: bacteria; assay: Overall comparison of antibacterial activity of the two forms; details: comparison of the C-terminal amide with the free-acid form (Example 3)
Procedure: as §1, §2

Substance | Antibacterial activity as lethal concentration [1] [µM] | Antibacterial activity as lethal concentration [2] [µM] | Antibacterial activity as lethal concentration [3] [µM] | Antibacterial activity as lethal concentration [4] [µM] | Antibacterial activity as lethal concentration [5] [µM] | Antibacterial activity as lethal concentration [6] [µM] | Antibacterial activity as lethal concentration [7] [µM] | Antibacterial activity as lethal concentration [8] [µM] | Antibacterial activity as lethal concentration [9] [µM] | Antibacterial activity as lethal concentration [10] [µM] | Antibacterial activity as lethal concentration [11] [µM] | Antibacterial activity as lethal concentration [12] [µM] | antibiotic quality, amidated form versus free acid [13]
SWLSKTAKKLENSAKKRISEGIAIAIQGGPR [P1-OH, H2 N-Ser-Trp-Leu-Ser-Lys-Thr-Ala-Lys-Lys-Leu-Glu-Asn-Ser-Ala-Lys-Lys-Arg-Ile- Ser-Glu-Gly-Ile-Ala-Ile-Ala-Ile-Gln-Gly-Gly-Pro-Arg-COOH] | 0.5 | 5.3 | 0.6 | 0.7 | 0.8 | 0.6 | 0.4 | 12 | 13 | 1.7 | > 520 | 44 | 
SWLSKTAKKLENSAKKRISEGIAIAIQGGPR-NH2 [P1-NH2] | 0.2 | 1.8 | 0.9 | 0.6 | 0.7 | 0.3 | 0.3 | 5.7 | 5.9 | 0.9 | > 490 | 19 | better antibiotic
